Data reported in patent US12302928B2, “Application of acylated derivative of amino acid in preparation of animal feed additive” (ANIPHA TECHNOLOGIES PTY LTD, priority 2018, dated 2025).
Read-outs that look alike come from different tables or passages of the source.

Key:
[1] = test system: Duroc×Landrace×Yorkshire cross-bred bacon-type pigs; assay: Breeding test B1: effect on the production performance of pigs; format: in vivo; settings: 400 ppm in basal daily ration, 28 days; for ADFI (average daily feed intake) / ADG (average daily gain): 65-day-old pigs; for FCR (feed conversion ratio): ADFI/ADG
Text: 270 65-day-old Duroc×Landrace×Yorkshire cross-bred bacon-type pigs with similar body weight were randomly divided into 9 groups, with 3 replications per group and 10 pigs (half of male and female) per replication. The pigpens and utensils were sterilized before the test. During the test period, the test pigs were free-stall housed in the same pigpen under the same feeding and management conditions. During the test period, the test pigs were free to drink water and eat feed, and test pigs were fed twice a day. The test groups were the control group (group I) and the test groups II˜IX, respectively. Wherein the basal daily ration was only given for the control group, and 400 ppm of different acylated derivative of the aminobutyric acid was added into the basal daily ration for the test groups II˜IX.
No other antioxidant ingredients and growth promoters were added for the test groups during the entire feeding process. The test period was 28 days, with each repetition as a unit, the test pigs were weighed at the age of 93 days without stopping water and feed for 12 hours; the average daily feed intake (ADFI, g/d*each pig), the average daily gain (ADG, g/d*each pig) and the feed conversion ratio (FCR) were calculated for each of the test groups. The formula for calculation was as follows: Average daily feed intake=(total amount of feed−remaining amount of feed)/(number of days of test×number of pigs per repetition); Average daily gain=(average body weight at the end of the test−average body weight at the beginning of the test)/number of days of test; Feed conversion ratio=average daily feed intake/average daily gain.

[2] = test system: yellow-feathered broilers; assay: Breeding test B3: effect on the production performance of broilers; format: in vivo; settings: 300 ppm in basal daily ration, 20 days; for ADFI (average daily feed intake): 1-day-old broilers; for FCR (feed conversion ratio): ADFI/ADG
Text: The test adopted a single-factor random design. 1,080 1-day-old yellow-feathered broilers with similar body weight and the average weight of 50 g were selected and randomly divided into 9 groups, with 6 replications per group and 20 yellow-feathered broilers (half of male and female) per replication. The poultry houses and utensils were sterilized before the test. During the test period, the yellow-feathered broilers were housed in the same poultry house under the same feeding and management conditions. The basal daily ration was mainly corn-soybean meal, and no other antioxidant components and growth promoters were added additionally during the entire feeding process. The test groups were the control group (group I) and the test groups II˜IX, respectively. The basal daily ration was only given for the control group, and 300 ppm of different acylated derivatives of the aminobutyric acid were added into the basal daily ration for the test groups II˜IX.
The test period was 20 days. The test broilers were free to drink water and eat feed, and were fed twice a day. With each repetition as a unit, the test broilers were weighed at the age of 21 days (stopping feed for 12 hours, without stopping water), the feed consumption of test broilers were recorded, and the average daily feed intake (ADFI, g/d*each broiler), the average daily gain (ADG, g/d*each broiler) and feed conversion ratio (FCR) were calculated for each of the test groups. The formula for calculation was as follows: Feed conversion ratio (FCR)=average daily feed intake/average daily gain.

Jingbai laying hens = assay: Breeding test B2: effect on the production performance of laying hens; format: in vivo; settings: 150 ppm in basal daily ration, 158 days; for EPR (egg production rate): 147-day-old laying hens
Text: The test adopted a single-factor random design. 1,080 147-day-old Jingbai laying hens with similar body weight were selected and randomly divided into 9 groups, with 6 replications per group and 20 Jingbai laying hens per replication. The poultry houses and utensils were sterilized before the test. During the test period, the Jingbai laying hens were cage cultured in the same poultry house under the same feeding and management conditions. The basal daily ration was mainly corn-soybean meal, and no other antioxidant ingredients and growth promoters were added additionally during the entire feeding process. The test groups were the control group (group I) and the test groups II˜IX, respectively. The basal daily ration was only given for the control group, and 150 ppm of different acylated derivatives of the aminobutyric acid were added into the basal daily ration for the test groups II˜IX. The pre-feeding period was 10 days, and the test period was 158 days. The test laying hens were free to drink water and eat feed, and were fed twice a day. The test takes each repetition as a unit, and records the total egg number, the egg production, and the feed intake every day, and calculates the egg production rate (EPR), the average daily feed intake (ADFI, g/d), the egg weight (EW, g) and the feed-to-egg ratio (FER) of the laying hens during the entire test. The formula for calculation was as follows: Egg production rate (%)=average daily total egg number/number of laying hens×100; Egg weight (g)=average daily total egg weight/average daily total egg number; Feed-to-egg ratio=average daily feed intake/egg weight.

grass carps = assay: Breeding test B4: use in fish feed (growth of grass carps); format: in vivo; settings: for change in vivo at 150 ppm, 150 µg/mL: po, 1344 h, read-out: Weight gain rate
Description: The test fishes used were grass carps, and the test was carried out in the aquaculture farm of the test field of Guangzhou Insighter. Healthy, lively, and uniform grass carp fingerlings were fed in large cages for 4 weeks before being used for formal breeding test. The experimental system was a small floating cage. Both the small cage and the temporary cage were placed in a 3500 m^2 pond of the test field, the depth of the pond was about 1.5 m, and the water of the pond was fully aerated in the bottom of the pond. During the test, 360 grass carps that were hungry for 1 day were randomly divided into 9 groups, with 4 replications per group and 10 grass carps per replication. All of the grass carps were weighed, and then were randomly placed in 36 cages and fed with different test feeds. The test feeds were self-prepared, and 150 ppm of different acylated derivatives of the aminobutyric acid were added into the basal feed for different test groups, respectively. The test groups were the control group (group I) and the test groups IIIX, respectively. The basal daily ration was only given for the control group, and 150 ppm of different acylated derivatives of the aminobutyric acid were added into the basal daily ration for the test groups IIIX.
The test adopted time-limited artificial feeding, and the feeding amount was adjusted once a week. The feeding rate of the control group and the feeding rate of the test groups (according to the initial body weight) were exactly the same, and the grass carps were fed twice a day (7:30 and 15:00). The test period was 8 weeks.

[3] = test system: convulsion caused by bicuculline or corazol; settings: cited from earlier work
[4] = test system: nephrotoxicity caused by cephalosporin; settings: rabbit; 150 mg/kg; cephalosporin at a dose of 150 mg/kg; cited from earlier work
[5] = after subcutaneous injection; cited from earlier work
glutamate decarboxylase = settings: cited from earlier work

Compound	ADFI (average daily feed intake) [1]	ADG (average daily gain) [1]	FCR (feed conversion ratio) [1]	ADG (average daily gain) [2]	ADFI (average daily feed intake) [2]	FCR (feed conversion ratio) [2]	ADFI (average daily feed intake) (Jingbai laying hens)	EW (egg weight) (Jingbai laying hens)	EPR (egg production rate) (Jingbai laying hens)	(FCR) (grass carps; 150 ppm in basal feed, 8 weeks)	Average final weight (grass carps; 150 ppm in basal feed, 8 weeks)	change in vivo at 150 ppm, 150 µg/mL (grass carps; 150 ppm in basal feed, 8 weeks)	antagonism of convulsion [3]	protection of the kidney from cephalosporin nephrotoxicity [4]	time to maximum blood concentration [5]	inhibition of glutamate decarboxylase (glutamate decarboxylase)	change in vivo at 150 ppm, 150 µg/mL (grass carps)
NCCCC(=O)NCCCC(=O)O [N-(γ-aminobutyryl)-γ-aminobutyric acid]	1831 g/d * each pig	693 g/d * each pig	2.642	14.62 g/d * each broiler	28.94 g/d * each broiler	1.98	160 g/day	55.24 g	84.4%	1.80	707 g	83.7%					
CC(=O)NCCCC(=O)O [N-acetyl-γ-aminobutyric acid]	1827 g/d * each pig	723 g/d * each pig	2.665	15.15 g/d * each broiler	31.06 g/d * each broiler	2.05	160 g/day	55.24 g	82.2%	1.81	733 g	77.6%					
O=C(O)CCCNC(=O)c1ccccc1 [N-benzoyl-γ-aminobutyric acid]	1837 g/d * each pig	699 g/d * each pig	2.628	14.13 g/d * each broiler	27.56 g/d * each broiler	1.95	158 g/day	54.92 g	86.7%	1.79	721 g		can antagonize the convulsion	can significantly protect the kidney	≤ 5 min	can inhibit a glutamate decarboxylase	81.6%
NCC(=O)NCCCC(=O)O [N-glycyl-γ-aminobutyric acid]	1728 g/d * each pig	651 g/d * each pig	2.655	13.02 g/d * each broiler	26.17 g/d * each broiler	2.01	161 g/day	55.61 g	82.9%	1.75	755 g						78.2%
Nc1ccc(C(=O)NCCCC(=O)O)cc1 [N-p-aminobenzoyl-γ-aminobutyric acid]	1643 g/d * each pig	632 g/d * each pig	2.601	12.42 g/d * each broiler	25.84 g/d * each broiler	2.08	161 g/day	55.31 g	82.6%	1.84	713 g	79.2%					
O=C(O)CCCNC(=O)c1ccc(Cl)cc1 [N-p-chlorobenzoyl-γ-aminobutyric acid]	1675 g/d * each pig	642 g/d * each pig	2.610	12.32 g/d * each broiler	24.88 g/d * each broiler	2.02	160 g/day	55.07 g	81.4%	1.77	730 g	81.5%					
O=C(O)CCCNC(=O)c1ccc(O)cc1 [N-p-hydroxybenzoyl-γ-aminobutyric acid]	1602 g/d * each pig	611 g/d * each pig	2.620	12.32 g/d * each broiler	24.52 g/d * each broiler	1.99	161 g/day	55.27 g	81.8%	1.82	710 g	81.5%					
Cc1ccc(C(=O)NCCCC(=O)O)cc1 [N-p-methylbenzoyl-γ-aminobutyric acid]	1769 g/d * each pig	672 g/d * each pig	2.631	13.84 g/d * each broiler	27.13 g/d * each broiler	1.96	159 g/day	54.81 g	84.4%	1.74	739 g	82.1%					
